From patent publication US12168673B2 (Mitopower, Inc., priority 2022, dated 2024) come the findings set out here.

Read-outs that look alike come from different tables or passages of the source.

In one data set the test system is human hepatocytes. Put plainly: Human hepatocyte stability.
Another data set is described as follows: Kinetic solubility. Format: physicochemical. The settings on record: for solubility at 1.5 h: aqueous buffer, kinetic from dmso stock, 0.1 M phosphate buffered saline pH 7.4, target 100 μM; for % Solubility: at 100 μM, 0.1 M phosphate buffered saline pH 7.4. The protocol: The target compound concentration was 100 μM (kinetic), the assay buffer was 0.1 M phosphate buffered saline pH 7.4, the mixing period was 1.5 h (kinetic). The sample was prepared by centrifugation or filtration and the detection method used was HPLC with UV-vis spectrometry.

A further data set has as its system Jurkat Cells. Kind of data set: Cellular NAD+ levels in Jurkat cells (LCMS/MS). Format: cell-based. The settings on record: 30 μM, four hours of incubation. The protocol: Compounds 100, 101 and 102 were weighted out to prepare 60 μM stock solutions in RPMI media. 200 ng/mL solution of Rac-tenofovir d6 (Vivan Life-Sciences) was prepared in methanol (MeOH) and placed at −20° C. until use.
Jurkat Cells, sourced from NCCS Pune, were cultured in RPMI media containing FBS & Antibiotics. Cells from different flasks (90% confluent) were pooled into a 15 mL conical tube and centrifuged for 5 mins at 1200 rpm for 5 mins. The supernatant solution was discarded, and the pellet was washed with 5 mL sterile PBS (without Ca^2+ & Mg^2+). The tube was then centrifuged at 1200 rpm for 5 mins and the supernatant was discarded. The cell pellet was resuspended in 7 mL of RPMI media, and a cell count was done using 10 uL of the cell solution. 1.5 million cells from the cell solution were seeded into 1.5 mL microcentrifuge tubes. […] The tubes were placed in racks and gently swirled to mix the compounds into the media containing the cells. These tubes were then incubated for 4 hours in a 37° C. incubator at 5% CO2. After 4 hours of incubation the cells were spun down at 1000 rpm for 10 mins, the supernatant was discarded carefully, and cells were snap frozen in liquid nitrogen. When the samples were run, the extraction of the cells was on ice, cells were lysed using 20 uL deionized water and then ice cold 80% methanol containing the internal standard—Rac-Tenofovir D was added. The tubes were then vortexed at 2500 rpm for 8 minutes and then centrifuged at […] for 10 minutes. 150 uL of the supernatant was carefully transferred to HPLC vials and was analyzed for NAD^+ on the Abscised 4000 Q Trap LCMS/MS system. A C18, 3.5 μm, 2.1×100 mm, Bridge Column was used in the LC. The mobile phase consisted of 10 mM ammonium acetate with 0.1% acetic acid and 0.1% hexylamine as Solvent-A and 10 mM Ammonium acetate with 0.1% acetic acid and 0.1% hexylamine in 95/5 MeOH/H2O as Solvent-B. The gradient used was 0 mins-0.0% B, 0.5 mins-100% B, 1.5 mins-100% B, 3.0 mins-100% B, 3.1 mins-0.0% B, 7.0-STOP. The column flow rate was 0.5 mL/min. The sample injection volume was […].

Another data set relates to Huh-7 Cells. Put plainly: Cellular NAD+ levels in Huh-7 cells (LCMS/MS). Format: cell-based. The settings on record: 125 μm, four hours of incubation. How it is done: Huh-7 Cells, sourced from NCCS Pune, were cultured in RPMI media containing FBS & Antibiotics. Cells from different flasks (80-90% confluent) were pooled into a 15 mL conical tube and centrifuged for 5 mins at 1200 rpm for 5 mins. The supernatant solution was discarded, and the pellet was washed with 5 mL sterile PBS (without Ca^2+ and Mg^2+). The tube was then centrifuged at 1200 rpm for 5 mins and the supernatant was discarded. The cell pellet was resuspended in 7 mL of RPMI media, and a cell count was done using 10 uL of the cell solution. 1.5 million cells from the cell solution were seeded into 1.5 mL microcentrifuge tubes. […] The tubes were placed in racks and gently swirled to mix the compounds into the media containing the cells. These tubes were then incubated for 4 hours in a 37° C. incubator at 5% CO2. After 4 hours of incubation the cells were spun down at 1000 rpm for 10 mins, the supernatant was discarded carefully, and cells were snap frozen in liquid nitrogen. When the samples were run, the extraction of the cells was on ice, cells were lysed using 20 uL deionized water and then ice cold 80% methanol containing the internal standard—Rac-Tenofovir D was added. The tubes were then vortexed at 2500 rpm for 8 minutes and then centrifuged at […] for 10 minutes. 150 uL of the supernatant was carefully transferred to HPLC vials and was analyzed for NAD^+ on the Abscised 4000 Q Trap LCMS/MS system. A C18, 3.5 μm, 2.1×100 mm, Bridge Column was used in the LC. The mobile phase consisted of 10 mM ammonium acetate with 0.1% acetic acid & 0.1% hexylamine as Solvent-A and 10 mM Ammonium acetate with 0.1% acetic acid and 0.1% hexylamine in 95/5 MeOH/H2O as Solvent-B. The gradient used was 0 mins-0.0% B, 0.5 mins-100% B, 1.5 mins-100% B, 3.0 mins-100% B, 3.1 mins-0.0% B, 7.0-STOP. The column flow rate was 0.5 mL/min. The sample injection volume was […].

The subject of a further data set is Human Plasma Protein. Put plainly: in vitro. The note with it: human, plasma. How it is done: The test compounds were weighed and prepared as 10 mM stocks in 100% DMSO. 10 μM is the final test concentration for all compounds.
The samples were prepared by spiking test compound(s) in plasma at 10 μM final concentration. 200 μL of plasma containing the test compound was added into the donor well (RED Chamber) of the insert. Simultaneously 350 μL of dialysis buffer (1×PBS) was added into the receiver well (white chamber). Two measurements were made for each test compound. The plate was covered with a sealer and incubated at 37° C. degrees on an orbital shaker at 500 rpm for 5 hours.
After incubation, 25 μl of plasma (RED chamber) and 25 μl of buffer (white chamber) samples were separately collected into separate centrifugation tubes. Plasma and buffer samples were precipitated with 200 μL of 100% acetonitrile containing internal standards. 25 μl of T0 (T Zero) plasma samples (samples before 5 hours incubation) were collected (To samples were processed immediately after the preparation of plasma working stock solution. These samples serve as a measure for calculating the percentage recovery of the test compound and precipitated using 100% acetonitrile containing internal standards). The samples were vortexed at 1000 rpm for 5 min and centrifuged at 4000 rpm for 10 min. The supernatant was diluted 2-fold with water and injected into LC-MS/MS.
The % of Plasma bound/unbound fraction was calculated by the following equation: % Unbound or % free=100*(Fc/Tc); % Recovery=100 (Fc+Tc)/[…] where Tc=Total compound concentration as determined by the calculated concentration on the plasma side of the membrane (concentration in plasma chamber), Fc=Free compound concentration as determined by the calculated concentration on the buffer side of the membrane (concentration in buffer chamber) and T0=Total compound concentration as determined before dialysis.

[1] abbreviates: read-out: Mean Solubility (μg/mL).

Procedure for human hepatocytes: 10 mM stock solution of test compound was prepared in DMSO and diluted to a concentration of 1 mM with DMSO. Working concentration of 2 μM was prepared by further dilution with PBS. Preincubation mixture of 150 μL of hepatocyte cell suspension (1,000,000 cells/mL, INVITROGRO HT medium buffer), was added to vials for preincubation for 10 min @37° C.
150 μL of 2 μM working stock of the test compound was added to the cell suspension and incubated at @37 C at 500 rpm. The reaction was stopped at 0, 15, 30, 60 and 90 min by precipitating 50 μL of the incubation mixture with 150 μL of acetonitrile. Samples were vortexed for 5 min at 1200 rpm and centrifuged at 4000 rpm for 10 min. 150 μL of the supernatant was diluted with 150 μL of water and injected in MS system (SCIEX, API 4500 Q Trap) for analysis.

Turning to `O=C(OC1O[C@H](CO)[C@@H](O)[C@H]1O)c1cccnc1` (stereo partly drawn) [Compound 100, (3R, 4S, 5R)-3,4-dihydroxy-5-(hydroxymethyl) tetrahydrofuran-2-yl nicotinate], the “clearance in human hepatocytes (in words)” value (“clearance” for short) in the data set on human hepatocytes is on record as “medium clearance”. Also, the “% Parent Remaining” value with human hepatocytes (0 mins) was determined as 100%; in the data set with human hepatocytes (15 mins), 97%; in the data set with human hepatocytes (30 mins), 87.6%; in the data set on human hepatocytes (60 mins) it was 73.0%; in the data set with human hepatocytes (90 mins) it was 66.4%. The figures for the solubility at 1.5 h in “Kinetic solubility” (read-out: Mean Solubility) and in “Kinetic solubility” (setting [1]) were 96.5 µM and 24.6 µg/mL, respectively. For the same molecule, the “% Solubility” value in “Kinetic solubility” is 96%. The “NAD+ level increase compared to untreated cells” value in the data set with Jurkat Cells is given as “showed statistical significance in terms of NAD^+ level increases”; with Huh-7 Cells, “showed an increase”. Further, in the data set on Human Plasma Protein, the “protein binding (footnote, in words)” value was “Compounds 100 and 102 were not detected indicating no protein binding as shown in Table 12, above”.
For `COC(=O)[C@@H](C)NP(=O)(OC[C@H]1OC(OC(=O)c2cccnc2)[C@H](O)[C@@H]1O)Oc1ccccc1` (stereo partly drawn) [Compound 101, (3R, 4S, 5R)-3,4-dihydroxy-5-(((((1-methoxy-1-oxopropan-2-yl)amino)(phenoxy)phosphoryl)oxy)methyl)tetrahydrofuran-2-yl nicotinate], the “clearance” value in the data set on human hepatocytes was “high clearance”. Moreover, the “% Parent Remaining” value with human hepatocytes (0 mins) was 100%; in the data set with human hepatocytes (15 mins) it was 43%; with human hepatocytes (30 mins) it was 20.1%; in the data set on human hepatocytes (60 mins) it was 6.4%; in the data set on human hepatocytes (90 mins), 2.0%. The solubility at 1.5 h in “Kinetic solubility” (read-out: Mean Solubility) was 117 µM; in “Kinetic solubility” (setting [1]), 58 µg/mL. Further, the “% Solubility” value in the data set “Kinetic solubility” is 100%. The “NAD+ level increase compared to untreated cells” value in the data set on Jurkat Cells is “showed statistical significance in terms of NAD^+ level increases”; with Huh-7 Cells it was “showed an increase”. In the data set with Jurkat Cells, the “NAD+ level increase, comparison among the compounds” value is on record as “highest increase”. Further, the “Remarks (binding class)” value in the data set on Human Plasma Protein is “Medium binding”.
With `O=C(OC[C@H]1OC(O)[C@H](O)[C@@H]1O)c1ccccn1` (some centres unmarked) [Compound 102, (3,4,5-trihydroxytetrahydrofuran-2-yl) methyl picolinate], the “clearance” value with human hepatocytes is “medium clearance”. Further, the solubility at 1.5 h in the data set “Kinetic solubility” (read-out: Mean Solubility) turned out to be 105 µM; in the data set “Kinetic solubility” (setting [1]), 26.9 µg/mL. For the same molecule, in the data set “Kinetic solubility”, the “% Solubility” value turned out to be 100%. Further, the “NAD+ level increase compared to untreated cells” value is reported as “showed statistical significance in terms of NAD^+ level increases” with Jurkat Cells and “showed an increase” in the data set on Huh-7 Cells. In addition, the “protein binding (footnote, in words)” value in the data set with Human Plasma Protein was “Compounds 100 and 102 were not detected indicating no protein binding as shown in Table 12, above”.
